Where only a bound is given, the exact number is not on record here.

The term EC50 denotes the midpoint of the concentration-response curve. Higher therefore signals a need for much substance.

The target in the assay is T1, Zinc finger protein mex-5 (Caenorhabditis elegans, UniProt Q9XUB2).
T1 sequence (Q9XUB2 whole entry): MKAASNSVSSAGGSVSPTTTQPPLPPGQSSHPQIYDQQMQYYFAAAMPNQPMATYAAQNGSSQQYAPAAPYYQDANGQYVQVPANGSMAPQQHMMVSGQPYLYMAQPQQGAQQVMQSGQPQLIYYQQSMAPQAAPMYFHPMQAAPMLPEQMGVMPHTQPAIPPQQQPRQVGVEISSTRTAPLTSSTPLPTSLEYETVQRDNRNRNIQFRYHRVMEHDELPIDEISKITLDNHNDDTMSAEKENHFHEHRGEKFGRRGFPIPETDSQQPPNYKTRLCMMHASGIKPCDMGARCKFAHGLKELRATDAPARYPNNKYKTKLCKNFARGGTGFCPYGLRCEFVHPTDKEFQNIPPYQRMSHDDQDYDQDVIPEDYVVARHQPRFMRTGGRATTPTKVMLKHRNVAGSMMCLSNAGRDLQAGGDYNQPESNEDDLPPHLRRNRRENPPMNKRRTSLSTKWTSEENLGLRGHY
Put plainly: MEX-5/TCR-2 RNA interaction inhibitors, dose response, biochemical, C. elegans, fluorescence polarization (AID 1960). A general note: Fluorescence polarisation rises when a labelled molecule tumbles more slowly, as on binding a larger partner.
Regarding `CCN(CC)CCNC=C1C(=O)NC(=O)N(CCc2ccccc2)C1=O` [(5E)-5-[[2-(diethylamino)ethylamino]methylene]-1-phenethyl-barbituric acid], the EC50 was greater than 300 µM. Compound `CN(C)CCCNC=C1C(=O)NC(=O)N(CCc2ccc(F)cc2)C1=O` [(5E)-5-[[3-(dimethylamino)propylamino]methylene]-1-[2-(4-fluorophenyl)ethyl]barbituric acid] registered an EC50 greater than 300 µM. Regarding `CN(C)c1ccc(NC=C2C(=O)NC(=O)N(CCC3=CCCCC3)C2=O)cc1` [(5Z)-1-[2-(cyclohexen-1-yl)ethyl]-5-[[[4-(dimethylamino)phenyl]amino]methylidene]-1,3-diazinane-2,4,6-trione], the EC50 was greater than 300 µM.

`CCN(CC)CCNC=C1C(=O)NC(=O)N(Cc2ccccc2)C1=O` [(5Z)-1-benzyl-5-[[2-(diethylamino)ethylamino]methylene]barbituric acid] showed an EC50 greater than 300 µM. `CCOC(=O)C1C(=O)C(=Cc2cn(CC(=O)N3CCCC3)c3ccccc23)S/C1=N\c1ccccc1` (stereo not given) [(5Z)-2-anilino-4-keto-5-[[1-(2-keto-2-pyrrolidino-ethyl)indol-3-yl]methylene]thiophene-3-carboxylic acid ethyl ester]: a half-maximal effect (EC50) was put at 26.2 µM.

As for `C/N=C1/S/C(=C\c2ccc(N3CCCC3)c(F)c2)C(=O)N1C` [(5Z)-5-(3-fluoro-4-pyrrolidino-benzylidene)-3-methyl-2-methylimino-thiazolidin-4-one], the EC50 was 8.89 µM.

Turning to `CC1=C(C#N)C(=O)N(C)C(=O)C1=CN` [(5Z)-5-(aminomethylidene)-1,4-dimethyl-2,6-dioxopyridine-3-carbonitrile], the EC50 was greater than 300 µM. As for `C=CCN1C(=O)NC(=O)C(=CCC=Nc2ccccc2)C1=O` [(5Z)-5-[(E)-3-phenylazanylprop-2-enylidene]-1-prop-2-enyl-1,3-diazinane-2,4,6-trione], the EC50 was greater than 300 µM. The same measure for `COc1cccc(CN=Nc2ncnc(N)c2[N+](=O)[O-])c1OC` [(6-amino-5-nitro-pyrimidin-4-yl)-[(2,3-dimethoxybenzylidene)amino]amine]: greater than 300 µM; for `C=CCc1cccc(C=Nn2cnnc2)c1O` [(6E)-2-allyl-6-[(1,2,4-triazol-4-ylamino)methylene]cyclohexa-2,4-dien-1-one]: 238 µM; for `COc1ccc(N=Cc2cc3c(cc2O)OC(=N)C(C#N)C3c2ccccc2)cc1` (stereo not given) [(6E)-2-amino-6-[(4-methoxyanilino)methylidene]-7-oxo-4-phenyl-4H-1-benzopyran-3-carbonitrile]: greater than 300 µM. In turn, `Cc1n[nH]c(C)c1Sc1ccccc1/N=C/C1C=C(Cl)C=C([N+](=O)[O-])C1=O` (stereo not given) [(6E)-4-chloranyl-6-[[[2-[(3,5-dimethyl-1H-pyrazol-4-yl)sulfanyl]phenyl]amino]methylidene]-2-nitro-cyclohexa-2,4-dien-1-one] came in with an EC50 of 7.57 µM. In the case of `CCOc1cc(C=C2C(=N)N3N=C(S(C)(=O)=O)SC3=NC2=O)ccc1OCCOc1cccc(OC)c1` [(6E)-6-[[3-ethoxy-4-[2-(3-methoxyphenoxy)ethoxy]phenyl]methylidene]-5-imino-2-methylsulfonyl-[1,3,4]thiadiazolo[3,2-a]pyrimidin-7-one], it took 221 µM to reach a half-maximal effect (EC50).

In the case of `C=CC1=C(C(=O)O)N2C(=O)[C@@H](NC(=O)C(N=O)c3csc(N)n3)[C@H]2SC1` (stereo partly drawn) [(6R,7R)-7-[[2-(2-azanyl-1,3-thiazol-4-yl)-2-hydroxyimino-ethanoyl]amino]-3-ethenyl-8-oxidanylidene-5-thia-1-azabicyclo[4.2.0]oct-2-ene-2-carboxylic acid], the EC50 turned out to be 33.3 µM. As to `CCn1nc(C)c(C=C2CCCC3=C2OC(=N)C(C#N)C3c2c(C)nn(CC)c2C)c1C` (stereo not given) [(8E)-2-amino-4-(1-ethyl-3,5-dimethyl-1H-pyrazol-4-yl)-8-[(1-ethyl-3,5-dimethyl-1H-pyrazol-4-yl)methylene]-5,6,7,8-tetrahydro-4H-chromene-3-carbonitrile], the EC50 amounted to 51.8 µM.

Regarding `CCOC(=O)N1CCC2=C(C#N)C(=N)C(C#N)(C#N)[C@H](c3ccsc3)[C@H]2C1` [(8R,8aR)-6-amino-5,7,7-tricyano-8-(3-thienyl)-1,3,8,8a-tetrahydroisoquinoline-2-carboxylic acid ethyl ester], the EC50 was found to be 58.7 µM. In turn, `N#CC1=C2CCOC[C@@H]2[C@@H](c2ccsc2)C(C#N)(C#N)C1=N` [(8R,8aR)-6-amino-8-(3-thienyl)-1,3,8,8a-tetrahydroisochromene-5,7,7-tricarbonitrile] came in with an EC50 greater than 300 µM. On to `CN1CCC2=C(C#N)C(=N)C(C#N)(C#N)[C@H](c3cccc(Cl)c3)C2C1` (stereo partly drawn) [(8S)-6-amino-8-(3-chlorophenyl)-2-methyl-1,3,8,8a-tetrahydroisoquinoline-5,7,7-tricarbonitrile], for which the response was half-maximal at 11.6 µM (EC50).

In turn, `CC(C)(C)OC(=O)N1CCC2=C(C#N)C(=N)C(C#N)(C#N)[C@H](c3cccnc3)[C@H]2C1` [(8S,8aR)-6-amino-5,7,7-tricyano-8-(3-pyridinyl)-1,3,8,8a-tetrahydroisoquinoline-2-carboxylic acid tert-butyl ester] returned an EC50 of 54 µM. `C[C@@H]1O[C@@H](O[C@@H]2[C@@H](O)[C@H](OCCc3ccc(O)c(O)c3)O[C@H](CO)[C@H]2OC(=O)/C=C/c2ccc(O)c(O)c2)[C@H](O)[C@H](O)[C@H]1O` [((2R,3R,4R,5R,6R)-6-(3,4-dihydroxyphenethoxy)-5-hydroxy-2-(hydroxymethyl)-4-((2S,3R,4R,5R,6S)-3,4,5-trihydroxy-6-methyltetrahydro-2H-pyran-2-yloxy)tetrahydro-2H-pyran-3-yl) 3-(3,4-dihydroxyphenyl)acrylate] gave an EC50 of 9.83 µM.

Regarding `COc1ccc(C(=O)CC=Nc2ccc([N+](=O)[O-])cc2C)c(OC)c1` [(E)-1-(2,4-dimethoxyphenyl)-3-(2-methyl-4-nitro-anilino)prop-2-en-1-one], the concentration giving a half-maximal response (EC50) is greater than 300 µM. Consider `COc1ccc(C(=O)CC=Nc2ccc([N+](=O)[O-])cc2C)cc1OC` [(E)-1-(3,4-dimethoxyphenyl)-3-(2-methyl-4-nitro-anilino)prop-2-en-1-one], for which the EC50 is 150 µM. In the case of `O=C(CC=Nc1ccc([N+](=O)[O-])cc1)c1ccc(Br)cc1` [(E)-1-(4-bromophenyl)-3-(4-nitroanilino)-2-propen-1-one], the EC50 is greater than 300 µM. `Cc1ccc(N=CCC(=O)c2sc(-c3ccccc3)nc2C)cc1` [(E)-1-(4-methyl-2-phenyl-1,3-thiazol-5-yl)-3-(4-toluidino)-2-propen-1-one] had an EC50 greater than 300 µM. The same measure for `Cc1nnc(SC(=Cc2ccc(-c3ccc(Cl)cc3)o2)C(=O)O)[nH]1` [(E)-3-[5-(4-chlorophenyl)furan-2-yl]-2-[(5-methyl-1H-1,2,4-triazol-3-yl)sulfanyl]prop-2-enoic acid]: 29.6 µM; for `CC(=N)C(C#N)C(=O)CSc1ncnc2ccccc12` (stereo not given) [(E)-3-amino-2-(2-quinazolin-4-ylsulfanylacetyl)but-2-enenitrile]: 8.02 µM.

`O=CC(C=Nc1ccccn1)c1nc2cc(Cl)ccc2o1` (stereo not given) [(Z)-2-(5-chloranyl-1,3-benzoxazol-2-yl)-3-(pyridin-2-ylamino)prop-2-enal] showed an EC50 of 36.4 µM. The value for `CCCCN1C(=O)NC(=O)C(=CNNC(=O)c2ccncc2)C1=O` [Isonicotinic acid N'-[1-butyl-2,4,6-trioxo-tetrahydro-pyrimidin-(5E)-ylidenemethyl]-hydrazide] was greater than 300 µM; that for `COc1cc(C2C3CN(C)CCC3=C(C#N)C(=N)C2(C#N)C#N)ccc1OC(C)C` (stereo not given) [MLS000034945] was 31.3 µM. As for `CC(=O)Nc1ccc(N=CCC(=O)c2ccc(C)o2)cc1` [MLS000089004], the EC50 was greater than 300 µM. The compound `CC(=O)N=c1c(C#N)cc2c(=O)n3cccc(C)c3nc2n1CCCOC(C)C` [MLS000332846] showed an EC50 of 229 µM. Turning to `COc1ccc(CCN2C(=O)NC(=O)C(=CNc3ccc(NC(C)=O)cc3)C2=O)cc1OC` [MLS000332913], the EC50 is greater than 300 µM.

As to `O=C1CCCC2=Nc3cc(Cl)ccc3SC12` (stereo not given) [MLS000333002], a half-maximal response (EC50) required 8.9 µM. The value for `CCCCCCN1C(=O)C(=CNc2ccccc2N2CCOCC2)C(=O)NC1=S` [MLS000333666] was greater than 300 µM; that for `Cc1ccc(CN=Nc2ncnc3nc[nH]c23)cc1` [MLS000419179] was greater than 300 µM. `CCOc1ccc(N=C(C(=C(Cl)C(Cl)Cl)[N+](=O)[O-])n2cncn2)cc1` [MLS000519210] gave an EC50 of 45.4 µM.

On to `COc1cc(CN=Nc2ccc([N+](=O)[O-])cc2)ccc1OCC(=O)Nc1ccc(C)c(C)c1` [MLS000537060], for which the EC50 worked out at 234 µM. The compound `Cc1cc(C)cc(N2C(=O)NC(=O)C(=Cc3cccn3-c3ccc(Cl)cc3)C2=O)c1` [MLS000545741] registered an EC50 of 136 µM.

For `[H]/N=C1/OC23CCCCC2C(C#N)(C#N)C1(C#N)C(c1ccc(OC)cc1)O3` (stereo not given) [MLS000554241], the EC50 came to 11.2 µM. `Nc1c(-c2nc3ccccc3[nH]2)c(O)cn1-c1ccc(CC(=O)O)cc1` [MLS000565528] came in with an EC50 of 1.59 µM. The value for `Cc1nnc(=O)[nH]c1N=NCC1C=CC(=O)C([N+](=O)[O-])=C1` (stereo not given) [MLS000585487] was 65.5 µM. The same measure for `O=C(N[N-][CH+]c1cc([N+](=O)[O-])ccc1N1CCCC1)c1ccccn1` [MLS000684285]: 70.5 µM. For the compound `Cc1cc(=O)n(-c2ccc(C(=O)O)c(N)c2)[nH]1` [MLS000690508], the EC50 turned out to be 38.3 µM.

Compound `CC1=C(C#N)C(=O)N(C)C(=O)C1=CNNc1ccc(F)cc1` [MLS000702698] had an EC50 greater than 300 µM. For `O=C(c1ccccc1)[C@@H]1c2c(c(O)n(-c3ccc(F)cc3)c2O)C2CCCN21` (stereo not given in full) [MLS000769629], the EC50 was found to be 40.9 µM.

These data come from BindingDB's records for doi:10.7270/Q2D798VP (Broad Institute, 2009).
